Target: T1, recombinant human secreted phospholipase A2 (sPLA2) (Homo sapiens, UniProt P14555)
T1 sequence (P14555 21-144): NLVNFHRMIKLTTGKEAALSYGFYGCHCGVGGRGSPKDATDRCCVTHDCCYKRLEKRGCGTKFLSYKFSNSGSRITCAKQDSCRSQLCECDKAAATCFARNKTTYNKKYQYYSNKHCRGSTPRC
Experiment: chromogenic assay for inhibitors of recombinant human secreted phospholipase A2
Assay type: biochemical
Settings: diheptanoyl thio-PC substrate 1 mM, Triton X-100 mixed micelles, pH 7.5, 40° C. for 30 minutes, absorbance at 405 nm, triplicate
Text: The following chromogenic assay procedure was used to identify and evaluate inhibitors of recombinant human secreted phospholipase A2. The assay described herein has been adapted for high volume screening using 96 well microtiter plates. A general description of this assay method is found in the article, “Analysis of Human Synovial Fluid Phospholipase A2 on Short Chain Phosphatidylcholine-Mixed Micelles: Development of a Spectrophotometric Assay Suitable for a Microtiterplate Reader”, by Laure J. Reynolds, Lori L. Hughes, and Edward A Dennis, Analytical Biochemistry, 204, pp. 190-197, 1992 (the disclosure of which is incorporated herein by reference):
A measured volume of racemic dipheptanoyl thio PC supplied in chloroform at a concentration of 100 mg/ml is taken to dryness and redissolved in 10 millimolar TRITON X-100™ nonionic detergent aqueous solution. Reaction Buffer is added to the solution, then DTNB to give the Reaction Mixture.
The reaction mixture thus obtained contains 1 mM diheptanoly thio-PC substrate, 0.29 mm Triton X-100™ detergent, and 0.12 mm DTMB in a buffered aqueous solution at pH 7.5.
• 1. Add 0.2 ml reaction mixture to all wells; • 2. Add 10 ul test compound (or solvent blank) to appropriate wells, mix 20 seconds; • 3. Add 50 nanograms of sPLA2 (10 microliters) to appropriate wells; • 4. Incubate plate at 40° C. for 30 minutes; • 5. Read absorbance of wells at 405 nanometers with an automatic plate reader.
Tests were done in triplicate. Typically, compounds were tested at a final concentration of 5 ug/ml. […] Lack of color development at 405 nanometers evidenced inhibition. Compounds initially found to be active were re-assayed to confirm their activity and, if sufficiently active, IC50 values were determined. […] In all cases, % inhibition measured at 405 nanometers generated by enzyme reactions containing inhibitors relative to the uninhibited control reactions was determined. Each sample was titrated in triplicate and result values were averaged for plotting and calculation of IC50 values. IC50 values were determined by plotting log concentration versus inhibition values in the range from 10-90% inhibition.
For `CCc1c(C(=O)C(N)=O)c2c(OCC(=O)OC)cc3ccccc3c2n1Cc1ccccc1` [Example 1, 2-[[3-(2-Amino-1,2-dioxoethyl)-2-ethyl-1-benzyl-1H-benz[g]indol-4-yl]oxy]acetic acid methyl ester hemihydrate], the IC50 was 0.048 µM.
`CCc1c(C(=O)C(N)=O)c2c(OCC(=O)O)cc3ccccc3c2n1Cc1ccccc1` [Example 2, 2-[[3-(2-Amino-1,2-dioxoethyl)-2-ethyl-1-benzyl-1H-benz[g]indol-4-yl]oxy]acetic acid] gave an IC50 of 0.01 µM.
Work on `COC(=O)COc1cc2ccccc2c2c1c(C(=O)C(N)=O)c(C)n2CC1CCCCC1` [Example 3, 2-[[3-(2-amino-1,2-dioxoethyl)-2-methyl-1-cyclohexylmethyl-1H-benz[g]indol-4-yl]oxy]acetic acid methyl ester] yielded an IC50 of 0.148 µM.
`Cc1c(C(=O)C(N)=O)c2c(OCC(=O)O)cc3ccccc3c2n1CC1CCCCC1` [Example 4, 2-[[3-(2-Amino-1,2-dioxoethyl)-2-methyl-1-cyclohexylmethyl-1H-benz[g]indol-4-yl]oxy]acetic acid] showed an IC50 of 0.011 µM.
With `COC(=O)COc1cc2ccccc2c2c1c(C(=O)C(N)=O)c(C)n2Cc1cccc(-c2ccc(F)cc2)c1` [Example 5, 2-[[3-(2-Amino-1,2-dioxoethyl)-2-methyl-1-[3-(4-fluorophenyl)benzyl]-1H-benz[g]indol-4-yl]oxy]acetic acid methyl ester] the IC50 was 0.176 µM.
`Cc1c(C(=O)C(N)=O)c2c(OCC(=O)O)cc3ccccc3c2n1Cc1cccc(-c2ccc(F)cc2)c1` [Example 6, 2-[[3-(2-Amino-1,2-dioxoethyl)-2-methyl-1-[3-(4-fluorophenyl)benzyl]-1H-benz[g]indol-4-yl]oxy]acetic acid.] gave an IC50 of 0.021 µM.

System: not given
Experiment: not given
Settings: not given
In the case of `CCc1c(C(=O)C(N)=O)c2c(OCC(=O)OC)cc3ccccc3c2n1Cc1ccccc1` (hydrate or solvate) [Example 1, 2-[[3-(2-Amino-1,2-dioxoethyl)-2-ethyl-1-benzyl-1H-benz[g]indol-4-yl]oxy]acetic acid methyl ester hemihydrate], the melting point is reported as 165 to 167 °C.

From patent publication US6916840B2, “Spla2 inhibitors” (Eli Lilly and Company, priority 2000, dated 2005)
